Experiment [1] concerns the target Full-length PRMT5 enzyme co-expressed with His6-MEP50 (Homo sapiens (Human), UniProt O14744). Briefly: PRMT5 Biochemical Assay (Transcreener EPIGEN methyltransferase, fluorescence polarisation). Particulars: histone H4 derived peptide substrate 1 μM, 1 μM S-Adenosyl methionine, 4 hours at 37 degree Celsius. On the procedure:
Compounds of the Invention may be Tested for In Vitro Activity in the Following Assay:
A histone H4 derived peptide is used as substrate (amino acid sequence: […]NH2). Full-length PRMT5 enzyme (NCBI Reference sequence NP_006100.2) was co-expressed with His6-MEP50 in insect cells and purified via Nickel immobilized metal affinity and gel filtration chromatography (“the enzyme”).
The 6 μL reactions are run in Greiner brand black 384-well low volume assay plates. All reactions contained assay buffer (phosphate buffered saline, 0.01% (v/v) Tween-20, 0.01% (w/v) albumin from chicken egg white, 1 mM Dithiothreitol, 1 μM peptide substrate, 1 μM S-Adenosyl methionine, and 15 ng/reaction enzyme, with the enzyme being omitted from negative control reactions. Compounds were added in a volume of 100 nL from dilution series prepared in DMSO, positive and negative control reactions receiving the same volume DMSO without compound. The plates were sealed with adhesive seals and incubated for 4 hours at 37 degree Celsius. Reaction progress was measured using the Transcreener™ EPIGEN methyltransferase assay (BellBrook Labs, Madison, Wis.) as recommended by the manufacturer. To each reaction 2 μL detection mix were added, containing coupling enzymes, fluorescence polarisation tracer, and AMP antibody. Plates were incubated for 90 minutes before being read on a Perkin Elmer EnVision™ plate reader in fluorescence polarisation mode. IC50 values were obtained from the raw readings by calculating percent inhibition (% I) for each reaction relative to controls on the same plate (% I=(I−CN)/(CP−CN) where CN/CP are the averages of the negative/positive reactions, respectively), then fitting the % I data vs. compound concentration [I] to % I=(A+((B−A)/(1+((C/[I])^D)))) where A is the lower asymptote, B is the upper asymptote, C is the IC50 value, and D is the slope.
(In general: Fluorescence polarisation rises when a labelled molecule tumbles more slowly, as on binding a larger partner.)

The subject of experiment [2] is PRMT5 (symmetrical dimethylation of arginine in TE11 cells). Put plainly: PRMT5 Biomarker Assay (symmetrical dimethylation of arginine, Di-Methyl Histone H4 Arginine 3). Format: cell-based. Particulars: Homo sapiens, TE-11, 72 hours incubation, anti-Di-Methyl Histone H4 Arginine 3 antibody. On the procedure: Compounds of the Invention may be Tested for Potency to Inhibit Symmetrical Dimethylation of Arginine in the Following Assay:
The cell line TE11 was seeded at a density of 6,000 cells per well in 96 well optical quality tissue culture plates in DME medium and 10% foetal bovine serum, and allowed to adhere for 5 hours under standard culture conditions (37 degree Celsius, 5% CO2). Compound dilutions prepared in DMSO were added to the medium, with negative control wells reserved for treatment with DMSO only and maximum inhibition controls receiving a potent PRMT5 inhibitor compound at 1 μM concentration. After incubation for 72 hours, the cells were fixed with 3.7% formaldehyde in PBS for 30 minutes at room temperature, washed with phosphate buffer saline and blocked with Odyssey blocking buffer (LI-COR, Lincoln, Nebr.). Rabbit anti-Di-Methyl Histone H4 Arginine 3 specific antibody (Epigentek) in Odyssey blocking buffer was added and incubated for 14 hours at 4 degree Celsius. After washing, anti-rabbit secondary antibody labelled with Alexa647 dye (LifeTechnologies) and Hoechst 33342 (1 μg/mL, SigmaAldrich) were added for 1 hour incubation. Plates were washed and read on a PerkinElmer Envision 2103 in fluorescence intensity scanning mode (24 scans across the well area). The plates were imaged on a PerkinElmer Phenix high content imaging platform. Using a Columbus image analysis pipeline, individual nuclei were located by Hoechst 33342 stain and the methylation level was calculated from the Alexa647-related intensity in the same area. IC50 values were obtained from the mean Alexa647-related intensity per cell by calculating percent inhibition (% I) for each well relative to controls on the same plate (% I=(I−CN)/(CP−CN) where CN/CP are the averages of the negative/maximum inhibition controls, respectively), then fitting the % I data vs. compound concentration [I] to % I=(A+((B−A)/(1+((C/[I])^D)))) where A is the lower asymptote, B is the upper asymptote, C is the IC50 value, and D is the slope.

Experiment [3] deals with Full-length (FL)-PRMT5-MEP50 enzyme complex (Homo sapiens (Human), UniProt O14744). Briefly: PRMT5-MEP50 Enzyme Methylation Assay (SAMDI). Format: biochemical. Particulars: 0.5 nM PRMT5-MEP50, 75 nM biotinylated H4R3(Me1) peptide, 15 μM SAM, 150 minutes at 37° C. On the procedure:
PRMT5-MEP50 Enzyme Methylation Assay
PRMT5/MEP50 biochemical assay is a direct measurement of the methylation activity of the enzyme complex on a short peptide substrate derived from the N-terminus of H4 histone. Methylation experiment is performed with recombinant protein. The assessment of inhibitory effect (IC50) of small molecules is measured by the effectiveness of the compounds to inhibit this reaction.
In this assay, the potency (IC50) of each compound was determined from a twenty-point (1:2 serial dilution; top compound concentration of 100000 nM) titration curve using the following outlined procedure. To each well of a white ProxiPlus 384 well-plate, 100 nL of compound (1% DMSO in final assay volume of 10 μL) was dispensed, followed by the addition of 8 μL of 1× assay buffer (50 mM Bicine pH 8.0, 1 mM DTT, 0.004% Tween20, 0.01% BSA) containing 0.5 nM of Full-length (FL)-PRMT5-MEP50 enzyme complex (recombinant proteins from baculovirus-transfected Sf21 cells: FL-PRMT5; MW=[…] and FL-MEP50; MW=38614). Plates were sealed and placed in a 37° C. humidified chamber for 30 minutes pre-incubation with compounds. Subsequently, each reaction was initiated by the addition of 2 μL 1× assay buffer containing 75 nM biotinylated H4R3(Me1) peptide, and 15 μM S-(5′-Adenosyl)-L-Methionine Chloride (SAM). The final reaction in each well of 10 μL consists of 0.5 nM PRMT5-MEP50,75 nM biotinylated-peptide, and 15 μM SAM. Methylation reactions were allowed to proceed for 150 minutes in a sealed plate at 37° C. Reactions were immediately quenched by the addition of 1 μL of 10% formic acid. Plates were then frozen and shipped to SAMDI™ Tech Inc. to determine the percent conversion from […]. IC50 values were determined by 7 parameters biphasic fit model plotting the percent product conversion vs. (Log10) compound concentrations.

Experiment [4] has as its system PRMT5 (symmetric dimethylation of arginine (SDMA) in MCF-7 cells). Put plainly: PRMT5 Cell Target Engagement (TE) Assay (SDMA, high content imaging). Format: cell-based. Particulars: Homo sapiens, MCF7, 72 h, treated for 3 days, top compound concentration of 10000 nM. An excerpt:
PRMT5 Cell Target Engagement (TE) Assay
The PRMT5 TE assay is a biomarker assay for identifying compounds that inhibit symmetric dimethylation of arginine (SDMA) of PRMT5 substrates. This assay detects symmetrically dimethylated nuclear proteins using high content imaging technology. Detection of the expression of symmetrically dimethylated nucleo proteins is through a mixture of primary rabbit monoclonal antibodies to SDMA (CST 13222), which in turn recognized by an Alexafluor 488 dye-conjugated anti-rabbit IgG secondary antibody. The IN Cell Analyzer 2200 measures nuclear Alexafluor 488 fluorescent dye intensity that is directly related to the level of expression of symmetrically dimethylated nuclear proteins at the single cell level. Nuclear AF488 dye intensities are compared to the mean value for DMSO treated cells […] to report percent of inhibition for each compound-treated well.
In this assay, the cell potency (EC50) of each compound was determined from a ten point (1:3 serial dilution; top compound concentration of 10000 nM) titration curve using the following outlined procedure. Each well of a BD falcon collagen coated black/clear bottom 384-well plate was seeded with 4000 MCF-7 cells and allowed to attach for 5 hours. Media from cell plate was removed at 0.5 mm above the bottom of the plate and replaced with 30 μL of fresh media containing 1.2× compounds in 0.1% DMSO. Cells were treated for 3 days in 37° C. CO2 incubator. On day 3, cells were fixed with Cytofix, permeabilized with 0.4% Triton-X-100/Cytofix, and washed with D-PBS without Ca/Mg. Cells were blocked with Licor Odessey blocking reagent for one hour at room temperature, followed by incubation with anti-SDMA (1:1000) antibody at 4° C. overnight. 1° antibody was removed, followed by three washings with DPBS without Ca/Mg and 0.05% Tween20. Hoechst (5 μg/ml), Cell Mask deep stain (1:2000) and Alexa488-conjugated goat anti-rabbit IgG (2 μg/mL) was added for 1 hour at room temperature. A final washing step (three washes) was performed before sealing plate for imaging on In Cell Analyzer 2200. Images from analyzer were uploaded to Columbus (at WP) for image analysis. IC50 values were determined by 4 parameters robust fit of percent fluorescence units vs. (Log10) compound concentrations.

The mark [5] stands for this setting: Enzyme Methylation Assay (EC50—1, nM), first EC50 of biphasic fit.
[6] abbreviates: second EC50 of biphasic fit, read-out: Enzyme Methylation Assay (EC50—2).

The structures appear in SMILES notation. Where two headings read alike, the source gives them in different places.

Chain of Full-length PRMT5 enzyme co-expressed with His6-MEP50 (O14744 whole entry): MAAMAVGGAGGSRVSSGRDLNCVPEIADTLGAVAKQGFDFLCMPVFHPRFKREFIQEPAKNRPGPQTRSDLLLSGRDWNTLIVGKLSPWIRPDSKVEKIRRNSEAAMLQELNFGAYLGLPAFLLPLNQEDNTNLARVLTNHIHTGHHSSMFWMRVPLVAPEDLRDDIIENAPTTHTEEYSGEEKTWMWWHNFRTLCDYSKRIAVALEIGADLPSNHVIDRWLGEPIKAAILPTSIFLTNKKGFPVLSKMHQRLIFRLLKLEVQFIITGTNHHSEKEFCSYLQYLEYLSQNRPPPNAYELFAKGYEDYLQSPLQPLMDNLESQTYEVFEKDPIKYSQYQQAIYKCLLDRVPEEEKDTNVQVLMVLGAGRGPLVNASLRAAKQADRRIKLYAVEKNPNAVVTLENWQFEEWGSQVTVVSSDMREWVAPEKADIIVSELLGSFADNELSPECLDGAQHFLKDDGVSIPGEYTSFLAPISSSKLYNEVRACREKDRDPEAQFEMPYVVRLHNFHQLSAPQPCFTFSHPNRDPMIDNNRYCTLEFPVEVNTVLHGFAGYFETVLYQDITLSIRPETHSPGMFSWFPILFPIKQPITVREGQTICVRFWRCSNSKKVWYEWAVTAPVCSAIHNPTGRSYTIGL
Chain of Full-length PRMT5 enzyme co-expressed with His6-MEP50 (Q9BQA1 whole entry partner): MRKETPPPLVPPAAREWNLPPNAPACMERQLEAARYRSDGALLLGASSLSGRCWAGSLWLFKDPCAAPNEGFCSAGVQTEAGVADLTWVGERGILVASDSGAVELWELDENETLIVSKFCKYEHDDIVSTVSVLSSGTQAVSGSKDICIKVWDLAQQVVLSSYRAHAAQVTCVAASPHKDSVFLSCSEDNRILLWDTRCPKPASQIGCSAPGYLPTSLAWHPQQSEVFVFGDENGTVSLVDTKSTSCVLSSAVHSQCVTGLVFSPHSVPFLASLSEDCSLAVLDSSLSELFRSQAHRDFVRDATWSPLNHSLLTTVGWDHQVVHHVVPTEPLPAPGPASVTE
Chain of Full-length (FL)-PRMT5-MEP50 enzyme complex (O14744 whole entry): as the sequence (O14744 whole entry) above
Chain of Full-length (FL)-PRMT5-MEP50 enzyme complex (Q9BQA1 whole entry partner): as the sequence (Q9BQA1 whole entry partner) above

By IC50 is commonly meant the concentration at which inhibition is half-maximal. A higher IC50 goes with lower potency. In general, EC50 refers to the concentration needed to bring the measured effect to its halfway point. Consider `CCOc1cc(C(=O)N2C3CCC2COC3)ccc1C(=O)NC[C@@H](O)[C@@H]1Cc2ccc(OC)cc2CN1` [Example 1, 4-(3-Oxa-8-azabicyclo[3.2.1]octane-8-carbonyl)-2-ethoxy-N—((R)-2-hydroxy-2-((S)-7-methoxy-1,2,3,4-tetrahydroisoquinolin-3-yl)ethyl)benzamide], for which the results for the IC50 in experiment [1] and in experiment [2] were 0.015 µM and 0.00019 µM, respectively. Further, the EC50 in experiment [3] (setting [5]) came to 0.27 nM; in experiment [3] (Enzyme Methylation Assay (EC50—2, nM), second EC50 of biphasic fit), 5 nM; in experiment [4], 0.019 µM.

As for `COc1ccc2c(c1)CN[C@H]([C@H](O)CNC(=O)c1ccc(C(=O)N3C4CCC3COC4)cc1)C2` [Example 2, 4-(3-Oxa-8-azabicyclo[3.2.1]octane-8-carbonyl)-N—((R)-2-hydroxy-2-((S)-7-methoxy-1,2,3,4-tetrahydroisoquinolin-3-yl)ethyl)benzamide], the IC50 in experiment [1] came out at 0.018 µM; in experiment [2] it was 0.0004 µM. The 50% effective concentration (EC50) in experiment [3] (setting [5]) turned out to be 0.62 nM; in experiment [3] (setting [6]) it was 126 nM; in experiment [4] it was 0.017 µM.

Take `CCOc1cc(C(=O)N2C3CCC2COC3)ccc1C(=O)NC[C@@H](O)[C@@H]1Cc2ccccc2CN1C` [Example 3, 4-(3-Oxa-8-azabicyclo[3.2.1]octane-8-carbonyl)-2-ethoxy-N—((R)-2-hydroxy-2-((S)-2-methyl-1,2,3,4-tetrahydroisoquinolin-3-yl)ethyl)benzamide 2,2,2-trifluoroacetate]: the IC50 was found to be 1.01 µM in experiment [1] and 0.00712 µM in experiment [2]. The EC50 in experiment [3] (setting [5]) came out at 47 nM; in experiment [3] (setting [6]) it was 574 nM; in experiment [4], 5.44 µM.

For the origin of these results see patent publication US10421743B2, “Tetrahydroisoquinolines as PRMT5 inhibitors” (CTXT PTY LTD, priority 2016, dated 2019).
